# Results published in publication PMC6408513, “A Novel Lactate Dehydrogenase Inhibitor, 1-(Phenylseleno)-4-(Trifluoromethyl) Benzene, Suppresses Tumor Growth through Apoptotic Cell Death” (Scientific Reports, 2019).
# Key:
# [1] = target: T1, lactate dehydrogenase A (LDHA) (Homo sapiens, UniProt P00338); assay: in vitro LDH activity assay by NADH fluorescence; format: biochemical; design: purified recombinant human LDHA
# [2] = target: T1, lactate dehydrogenase A (LDHA); assay: in vitro LDH activity assay by NADH fluorescence; Michaelis-Menten/Lineweaver-Burk; inhibits […]-pyruvate binding; format: biochemical; design: purified recombinant human LDHA
# [3] = target: T1, lactate dehydrogenase A (LDHA); assay: […]-pyruvate radioligand binding to bead-bound LDHA, competed by unlabeled pyruvate; design: purified His tagged-LDHA
structure (smiles),measurement,setting,value
c1ccc([Se]C2CCSC2)cc1 (stereo not drawn) [tetrahydro-3-(phenylseleno) thiophene],in vitro LDH activity assay by NADH fluorescence,[1],"tetrahydro-3-(phenylseleno) thiophene, and 1-methoxy-4-[(phenylmethyl)seleno]benzene had inhibitory effects on LDHA activity"
"FC(F)(F)c1ccc([Se]c2ccccc2)cc1 [PSTMB, 1-(phenylseleno)-4-(trifluoromethyl)benzene]",IC50,[2],145 nM
CC(=O)C(=O)O [pyruvate],"14C-pyruvate radioligand binding to bead-bound LDHA, competed by unlabeled pyruv",[3],The binding of pyruvate to LDHA was determined using C^14-labeled pyruvate.
